{"source": "patent US12350262B2", "about": "“Methods of treatment for cystic fibrosis” (Vertex Pharmaceuticals Incorporated, priority 2017, dated 2025)", "key": {"healthy subjects": {"tested_on": "healthy subjects", "assay": "Safety and Efficacy Study 1, Part 1 with healthy subjects", "type": "in vivo, human", "details": "interim data"}, "[1]": {"target": "T1, F508del-CFTR in human bronchial epithelial (HBE) cells (Homo sapiens, UniProt P13569, DEL508-508)", "T1 construct": "Non-CF and CF airway epithelia were isolated from bronchial tissue; endogenous in cells; host or cells: primary CF human bronchial epithelial (HBE) cells", "T1 sequence (P13569 with tags, fused parts or gaps DEL508-508)": "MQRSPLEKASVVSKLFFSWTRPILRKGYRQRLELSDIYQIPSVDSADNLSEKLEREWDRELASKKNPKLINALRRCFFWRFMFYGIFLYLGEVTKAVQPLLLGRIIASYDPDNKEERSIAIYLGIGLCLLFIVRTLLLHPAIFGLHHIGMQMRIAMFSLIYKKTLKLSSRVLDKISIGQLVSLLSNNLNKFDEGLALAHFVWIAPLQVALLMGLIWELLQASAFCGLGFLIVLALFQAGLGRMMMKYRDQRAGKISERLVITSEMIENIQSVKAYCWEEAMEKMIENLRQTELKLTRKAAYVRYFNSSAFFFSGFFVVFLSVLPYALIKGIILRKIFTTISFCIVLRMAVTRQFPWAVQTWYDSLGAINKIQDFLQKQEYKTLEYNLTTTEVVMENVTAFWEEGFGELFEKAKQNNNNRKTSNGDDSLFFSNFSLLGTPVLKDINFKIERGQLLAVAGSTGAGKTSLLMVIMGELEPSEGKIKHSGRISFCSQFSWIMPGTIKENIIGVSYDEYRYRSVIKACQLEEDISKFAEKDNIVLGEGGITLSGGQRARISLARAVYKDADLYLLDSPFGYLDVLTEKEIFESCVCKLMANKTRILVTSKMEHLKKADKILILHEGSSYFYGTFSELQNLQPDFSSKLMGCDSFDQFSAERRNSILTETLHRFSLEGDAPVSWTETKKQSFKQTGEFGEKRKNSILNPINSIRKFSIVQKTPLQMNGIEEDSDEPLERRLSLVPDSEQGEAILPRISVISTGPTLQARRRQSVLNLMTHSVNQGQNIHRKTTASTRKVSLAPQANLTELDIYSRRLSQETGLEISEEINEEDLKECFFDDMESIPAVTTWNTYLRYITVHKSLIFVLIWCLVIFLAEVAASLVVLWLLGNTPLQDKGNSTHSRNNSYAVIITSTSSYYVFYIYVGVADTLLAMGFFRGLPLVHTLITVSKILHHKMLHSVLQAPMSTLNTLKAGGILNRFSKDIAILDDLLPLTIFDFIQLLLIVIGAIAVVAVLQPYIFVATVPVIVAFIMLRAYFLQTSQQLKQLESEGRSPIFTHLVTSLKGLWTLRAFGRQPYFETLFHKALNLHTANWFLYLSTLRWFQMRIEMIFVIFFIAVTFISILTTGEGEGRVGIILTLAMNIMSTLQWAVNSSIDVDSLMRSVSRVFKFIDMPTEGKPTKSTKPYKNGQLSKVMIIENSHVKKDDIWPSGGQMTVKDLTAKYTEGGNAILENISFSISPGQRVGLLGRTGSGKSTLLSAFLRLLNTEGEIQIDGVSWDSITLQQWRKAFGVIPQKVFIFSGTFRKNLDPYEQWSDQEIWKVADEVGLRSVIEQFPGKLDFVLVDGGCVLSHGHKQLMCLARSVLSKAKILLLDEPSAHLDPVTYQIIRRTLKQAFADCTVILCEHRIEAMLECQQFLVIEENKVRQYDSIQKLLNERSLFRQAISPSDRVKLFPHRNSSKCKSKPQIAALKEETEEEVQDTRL", "assay": "Ussing chamber assay", "type": "cell-based", "details": "chloride current", "method": "Ussing chamber experiments were performed on polarized airway epithelial cells expressing F508del to further characterize the F508del modulators identified in the optical assay above. Non-CF and CF airway epithelia were isolated from bronchial tissue, cultured using methods well known in the art, and plated onto Costar® Snapwell™ filters that were precoated with NIH3T3-conditioned media. After four days the apical media was removed and the cells were grown at an air liquid interface for >14 days prior to use. […] CF-HBE cells were isolated from patients homozygous for F508del (F508del/F508del-HBE) or heterozygous for F508del with a different disease causing mutation on the other allele.\nHBE cells grown on Costar® Snapwell™ cell culture inserts were mounted in an Ussing chamber (Physiologic Instruments, Inc., San Diego, CA), and the transepithelial resistance and short-circuit current in the presence of a basolateral to apical Cl^− gradient (ISC) were measured using a voltage-clamp system (Department of Bioengineering, University of Iowa, IA). Briefly, HBE cells were examined under voltage-clamp recording conditions (Vhold=0 mV) at 37° C. […]\nA basolateral to apical membrane Cl^− concentration gradient was set up as follows. […] Chloride current was measured to assess the increase in functional CFTR in the cell membrane."}, "[2]": {"assay": "Rat pharmacokinetics, single IV and PO dose", "type": "in vivo, male Sprague Dawley rats", "details": "single nominal oral dose 3 mg/kg", "method": "Compound 1 was also administered to male Sprague Dawley rats at single nominal oral dose (PO) of 3 mg/kg as a solution in 5% NMP, 30% PEG400, 10% TPGS, 5% PVP-K30 at 5 mL/kg dose volume.\nThe study design, sample tracking, data run design and individual plasma sample concentrations were stored using Watson LIMS software, Version 7.4.2 (Thermo Scientific Inc, Waltham, MA). Plasma concentration-time profiles of Compound 1 in Sprague Dawley rats at scheduled (nominal) sampling times were analyzed by noncompartmental pharmacokinetic methods using PK function within Watson LIMS software, Version 7.4.2 (Thermo Scientific Inc, Waltham, MA). Key pharmacokinetic parameters such as “area under the curve” (AUC), from the time of drug administration, time zero, extrapolated to infinity, clearance (CL), and Percent of oral bioavailability (% F) were determined. The AUC values were calculated using the linear trapezoidal rule."}, "[3]": {"target": "T2, F508del CFTR in NIH3T3 cells (Homo sapiens, UniProt P13569, DEL508-508)", "T2 construct": "expressed in transfected cells", "T2 sequence (P13569 with tags, fused parts or gaps DEL508-508)": "as above", "assay": "Membrane potential optical assay (correction assay)", "type": "cell-based", "source_text": "An optical assay was employed to measure changes in membrane potential to determine the CFTR modulator properties of compounds. The assay utilized fluorescent voltage sensing dyes to measure changes in membrane potential using a fluorescent plate reader (e.g., FLIPR III, Molecular Devices, Inc.) as a readout for increase in functional F508del in NIH 3T3 cells. The driving force for the response was the creation of a chloride ion gradient in conjunction with channel activation and concurrent with compound treatment by a single liquid addition step after the cells had previously been loaded with a voltage sensing dye.\nNIH3T3 mouse fibroblasts stably expressing F508del were used for optical measurements of membrane potential. The cells were maintained at 37° C. in 5% CO2 and 90% humidity in Dulbecco's modified Eagle's medium supplemented with 2 mM glutamine, 10% fetal bovine serum, 1×NEAA, P-ME, 1× pen/strep, and 25 mM HEPES in 175 cm^2 culture flasks. For all optical assays, the cells were seeded at 12,000 cells/well in 384-well matrigel-coated plates. […] The cells were then activated and treated with Compound I. After 18-24 hours, fluorescence from the voltage sensing dye in the cells was measured to assess changes in the membrane potential as a read out for increase in functional F508del CFTR in the NIH3T3 cells."}}, "data": [{"smiles": "Cc1nn(C)cc1S(=O)(=O)NC(=O)c1ccc(-n2ccc(OCC(C)(C)C(F)(F)F)n2)nc1N1C[C@@H](C)CC1(C)C", "note": "[Compound I, N-(1,3-dimethylpyrazol-4-yl)sulfonyl-6-[3-(3,3,3-trifluoro-2,2-dimethyl-propoxy)pyrazol-1-yl]-2-[(4S)-2,2,4-trimethylpyrrolidin-1-yl]pyridine-3-carboxamide]", "values": [{"measurement": "safety and tolerability", "setting": "healthy subjects; multiple doses up to 340 mg for 10 days", "result": "safe and well tolerated"}, {"measurement": "safety and tolerability", "setting": "healthy subjects; single doses up to 360 mg", "result": "safe and well tolerated"}, {"measurement": "EC50", "setting": "[1]", "result": "< 2000", "unit": "nM"}, {"measurement": "HBE Max Eff", "setting": "[1]", "result": "+++ (means >100%)"}, {"measurement": "Rat PO AUC/dose", "setting": "[2]", "result": "9.4 ± 0.7", "unit": "µg·h/mL/mg/kg"}, {"measurement": "Emax", "setting": "[3]; NIH3T3, relative to Compound II, read-out: % Efficacy", "result": "≥ 100", "unit": "%"}, {"measurement": "EC50", "setting": "[3]; NIH3T3 cells expressing F508del, 18-24 hours treatment", "result": "< 3000", "unit": "nM"}]}]}
